Experimental data reported in patent US20250041624A1, “METHOD FOR ENHANCING ACTIVITY OF PHOTOSENSITIZER BY MAGNETIC FIELD” (PEKING UNIVERSITY, priority 2021, published 2025).
Where “and” joins values, the source holds several entries; their conditions need not be identical. Equal entries are not always repeated. Where two headings read alike, the source gives them in different places.

Experiments:
[1] = test system: HeLa xenograft tumor tissue; assay: IHC staining (Bax, Bcl-2, cleaved Caspase-3) of xenograft tumor tissue sections for apoptosis; format: in vivo, BALB/c nude mice; conditions: RB added, day 14, FIG. 19
Excerpt: (§1) Test (two): After sacrificing the mice on day 14, tumor tissue and major organs (heart, liver, spleen, lungs and kidney) are collected and detected histologically. Tumor tissue and major organs are fixed by 10% neutral formalin solution. Hematoxylin-Eosin (H&E) staining is used to analyze toxicity of light and magnetic field effects on tumor and normal organs. Terminal deoxynucleotidyl transferase-mediated dUTP nick end labeling (TUNEL) staining is used to detect apoptosis in tumor tissue, and expression of cleaved Caspase-3, Bax and Bcl-2 in tumor tissue is simultaneously detected.

[2] = Body weight, abnormal signs and H&E staining of major organs of treated mice; format: in vivo; conditions: all groups
Excerpt: as §1

[3] = test system: HeLa cells; assay: CCK-8 cell viability of HeLa cells under light and magnetic field; format: cell-based; conditions: for CV(%) (cell viability): final concentration of photosensitizer 30 mol/L (so in the source), light 10 min; for mfe(CV)(%) =(CV0−CVB)/CV0×100%: photosensitizer 30 mol/L (so in the source); for IC50: white light 400-700 nm 5 mW·cm−2, 10 min, read-out: RB Half inhibitory concentration
Description: (1) Appropriate amounts of HeLa cells are added to DMEM medium (Corning, USA, high glycoform, with glucose concentration […] 4.5 g/L), and then appropriate amounts of 10 wt % fetal bovine serum (FBS), 1 wt % penicillin and streptomycin are added. Cells are cultured at 37° C. in humidified air with 5% (volume fraction) CO2 for 2 days.
The above Hela cells (2×10^3/well) are seeded in 96-well plates for 24 h without light. 100 μL medium and 100 μL aqueous solution of RB with concentrations of 80, 40, 20, 10, 5 μmol/L or 100 μL 0.01 mol/L PBS buffer (phosphate buffered saline) are added respectively, and treated for 24 h, thereafter the cells are washed 3 times with PBS buffer.
DMEM (comprising FBS) medium is added to the 96-well plates for 24 hours in the absence of light. An additional 10 μL of Cell Counting Kit-8 (CCK-8 kit) (Beyotime Biotechnology Co. Ltd.) and 90 μL of DMEM are added to each well, and the light and magnetic field strength are controlled for a subsequent incubation of 30 minutes. The absorbance at 450 nm is read using a microplate reader. Cell Viability (CV) of Hela cells is calculated using the following equation: […]
Where As is the absorbance of HeLa cells comprising photosensitizer (PS), Ac is the absorbance of Hela cells without PS and Ab is the absorbance of those without PS and HeLa cells.
The change rate of half inhibitory concentration, mfeP (Cell Viability (%)) is obtained as follows: mfeP=(IC50,0−IC50,B)/IC50,B×100%, where IC50,0 is half inhibitory concentration at magnetic field strength of 0 mT and IC50,B is half inhibitory concentration at magnetic field strength of B.
Under white light with lighting conditions of 400-700 nm, the power of 5 mW·cm^−2, test is carried out in a magnetic field with strengths of 0-800 mT, and the irradiation and the magnetic field perform for 10 min. The results of the test calculations for mfeP (Cell Viability (%)) at different concentrations of RB and each magnetic field strength are shown in FIG. 8. The RB half inhibitory concentration μmol/L at magnetic field strength of B calculated by logistic regression model fitting according to FIG. 8 are shown in Table 2 below.
In above experiment, with final concentration of photosensitizer of 30 mol/L, CV (%) and mfe (CV) (%) measured and calculated at each magnetic field strength are specifically shown in Table 3, where mfe(CV)=(CV0−CVB)/CV0×100%.

[4] = test system: HeLa cells; assay: 14-day culture and crystal violet staining of HeLa cells after light and magnetic field; format: cell-based
Description: (2) HeLa cells (1×10^3/well) are seeded in 6-well plates, 30 μL aqueous solution of RB (final concentration of 30 μM) or equal volume 0.01M PBS buffer is added as control, and, after 24 h incubation in DMEM (comprising FBS) medium, cells are washed 3 times with PBS buffer.
The cells are treated in the dark or with 10 min light (561 nm […], 5 mW·cm^−2) under magnetic field conditions at 0 mT, 250 mT, 800 mT respectively. Culture is continued in the dark, and media is changed every other day. After 14 days, it is rinsed with PBS buffer and methanol, and cells are stained with added 0.1 wt % aqueous solution of crystal violet, and the number of cells in the plate is shown in FIG. 9; and the relative cell activity of HeLa cells at a concentration of 30 μmol/L RB under the magnetic field conditions of 0 mT, 250 mT, 800 mT is shown in FIG. 10.

[5] = test system: HeLa cells; assay: Annexin V-FITC/PI apoptosis flow cytometry of HeLa cells; format: cell-based; conditions: RB 30 μmol/L; for percentage of apoptotic cells: light 561 nm 5 mW·cm−2 10 min
Description: (2) HeLa cells (2×10^4/well) are seeded in 6-well plates and cultured for 24 hours, added with RB solution (final concentration 30 μmol/L) or PBS buffer (final concentration 0.01 mol/L), and after treating 24 hours, cells are washed 3 times with PBS buffer.
The cells are placed under a magnetic field at 0, 250 or 800 mT, simultaneously with light (561 nm, 5 mW·cm^−2) or in the dark, and treated 10 minutes. After 24 hours incubation in the dark, cells are stained with Annexin V-FITC/PI Apoptosis Kit (available from Biyotime Biotechnology Co. Ltd), are detected by flow cytometry (BD FACSVerse, Becton Dickinson) and are statistically analysized three times every group, and results are shown in FIG. 13, in which Quadrant Q4 is for the number of healthy cells, Q1 is for the number of early apoptotic cells, Q2 is for the number of late apoptotic cells and Q3 is for the number of necrotic cells.

O=C1OC2(c3cc(I)c(O)c(I)c3Oc3c2cc(I)c(O)c3I)c2c(Cl)c(Cl)c(Cl)c(Cl)c21 [RB, Rose Bengal]
apoptosis in tumor sections (IHC) ([1]; magnetic field of 250 mT): apoptosis is more pronounced
apoptosis in tumor sections (IHC) ([1]; magnetic field of 800 mT): apoptosis is not significant
systemic toxicity (H&E staining of major organs) ([2]; heart, liver, spleen, lungs and kidney, day 14, FIG. 20): do not result in systemic toxicity
body weight loss or other abnormal signs ([2]; mice, 14 days): No body weight loss or other abnormal signs
mfeP (Cell Viability(%), change rate of half inhibitory concentration) ([3]; MF 14 mT vs 0 mT): −21% and −21.5%
mfeP (Cell Viability(%), change rate of half inhibitory concentration) ([3]; MF 40 mT vs 0 mT): 8.1%
mfeP (Cell Viability(%), change rate of half inhibitory concentration) ([3]; MF 90 mT vs 0 mT): 13.3%
mfeP (Cell Viability(%), change rate of half inhibitory concentration) ([3]; MF 150 mT vs 0 mT): 14.8%
mfeP (Cell Viability(%), change rate of half inhibitory concentration) ([3]; MF 250 mT vs 0 mT): 22.4%
mfeP (Cell Viability(%), change rate of half inhibitory concentration) ([3]; MF 575 mT vs 0 mT): 22.1%
mfeP (Cell Viability(%), change rate of half inhibitory concentration) ([3]; MF 700 mT vs 0 mT): −11.1%
mfeP (Cell Viability(%), change rate of half inhibitory concentration) ([3]; MF 800 mT vs 0 mT): −58%
CV(%) (cell viability) ([3]; MF 0 mT): 71.1 ± 0.5%
CV(%) (cell viability) ([3]; MF 14 mT): 89.8 ± 4.2%
CV(%) (cell viability) ([3]; MF 150 mT): 72.5 ± 3.2%
CV(%) (cell viability) ([3]; MF 250 mT): 59.9 ± 2.6%
CV(%) (cell viability) ([3]; MF 400 mT): 42.3 ± 6.7%
CV(%) (cell viability) ([3]; MF 575 mT): 74.1 ± 0.6%
CV(%) (cell viability) ([3]; MF 700 mT): 78.3 ± 3.2%
CV(%) (cell viability) ([3]; MF 800 mT): 83.0 ± 0.5%
mfe(CV)(%) =(CV0−CVB)/CV0×100% ([3]; MF 0 mT): 0%
mfe(CV)(%) =(CV0−CVB)/CV0×100% ([3]; MF 14 mT): −26.3%
mfe(CV)(%) =(CV0−CVB)/CV0×100% ([3]; MF 150 mT): −1.97%
mfe(CV)(%) =(CV0−CVB)/CV0×100% ([3]; MF 250 mT): 15.8%
mfe(CV)(%) =(CV0−CVB)/CV0×100% ([3]; MF 400 mT): 40.5%
mfe(CV)(%) =(CV0−CVB)/CV0×100% ([3]; MF 575 mT): −4.2%
mfe(CV)(%) =(CV0−CVB)/CV0×100% ([3]; MF 700 mT): −10.13%
mfe(CV)(%) =(CV0−CVB)/CV0×100% ([3]; MF 800 mT): −16.7%
IC50 ([3]; MF 0 mT): 34.2 ± 1.7 µM
IC50 ([3]; MF 14 mT): 41.6 ± 1.4 µM
IC50 ([3]; MF 40 mT): 31.5 ± 1 µM
IC50 ([3]; MF 90 mT): 29.7 ± 0.7 µM
IC50 ([3]; MF 150 mT): 29.2 ± 0.6 µM
IC50 ([3]; MF 250 mT): 26.6 ± 0.3 µM
IC50 ([3]; MF 400 mT): 26.1 ± 0.8 µM
IC50 ([3]; MF 575 mT): 26.7 ± 1.9 µM
IC50 ([3]; MF 700 mT): 38 ± 1.1 µM
IC50 ([3]; MF 800 mT): 54.1 ± 0.8 µM
cytotoxicity against HeLa cells in the absence of light ([4]; RB 30 μM, dark, with or without magnetic field, FIG. 9): no cytotoxicity
cell numbers relative to PBS-only treatment ([4]; RB 30 μM, light alone (0 mT), 14 days, FIG. 9): significantly lower
cell numbers ([4]; RB 30 μM, light, 250 mT, 14 days, FIG. 9): the least
cell numbers ([4]; RB 30 μM, light, 800 mT, 14 days, FIG. 9): more under 800 mT conditions compared to 0 mT and 250 mT conditions
reduction of cell number relative to 0 mT ([4]; RB 30 μmol/L, light, 250 mT, FIG. 10): 17%
increase of cell number relative to 0 mT ([4]; RB 30 μmol/L, light, 800 mT, FIG. 10): 32%
percentage of apoptotic cells ([5]; 250 mT): 75.9%
percentage of apoptotic cells ([5]; 800 mT): 32.9%
percentage of apoptotic cells ([5]; no magnetic field): 63.8%
increase of percentage of apoptotic cells vs no magnetic field ([5]; light, 250 mT): 19%
